One assay deals with HSV-polymerase (Human herpesvirus 1 (strain 17) (HHV-1) (Human herpes simplex virus 1), UniProt P04293). In words: biochemical.
The next assay deals with VZV Ellen strain. In words: VZV qPCR assay. To be noted: Human alphaherpesvirus 3, MRC5, 48 h, read-out: Cellular activity against VZV (EC50). (In qPCR the cycle at which signal appears reflects the starting amount.)
The target in a further assay is CMV-polymerase (Human cytomegalovirus (strain AD169) (HHV-5) (Human herpesvirus 5), UniProt P08546). In words: biochemical. The settings on record: read-out: CMV-polymerase Biochemical IC50.
For another assay, the system named is CMV. In words: microbe, parasite or virus in culture. The assay is classed as cell-based.
The test system of assay [1] is EBV (SNU-719 cells latently infected). Briefly: EBV qPCR assay. To be noted: human gammaherpesvirus 4, 72 h, read-out: Cellular activity against EBV (EC50).
The test system of assay [2] is KOS strain of HSV-1 virus. In words: HSV-1 qPCR assay. The settings on record: Human alphaherpesvirus 1, 24 h.
[3] abbreviates: Human betaherpesvirus 5, 72 h, read-out: CMV-Luc Cellular EC50, NN-NHDF cells, MOI 1, 72 hrs.
Setting [4] is: Human betaherpesvirus 5, read-out: Cellular activity against CMV (EC50), Table 18.
The mark [5] stands for this setting: read-out: Cellular activity against HSV-1 (EC50), NN-NHDF cells, MOI 0.01, 24 hrs, qPCR.

SMILES strings stand for the structures. Read-outs that look alike come from different tables or passages of the source.

For the compound `Cn1nc(C(=O)NCc2ccc(C#N)cc2)c2c1C(=O)N(CC1(S(=O)(=O)C(C)(CO)CO)CC1)CC2` [Example 176, N-(4-Cyanobenzyl)-6-((1-((1,3-dihydroxy-2-methylpropan-2-yl)sulfonyl)cyclopropyl)methyl)-1-methyl-7-oxo-4,5,6,7-tetrahydro-1H-pyrazolo[3,4-c]pyridine-3-carboxamide], the IC50 (commonly the point on the concentration scale where inhibition reaches its midpoint) at HSV-polymerase was 39 nM; on CMV-polymerase, 2 nM. The EC50 – broadly, the concentration needed to bring the measured effect to its halfway point – was 74 nM in the assay with VZV Ellen strain; 52 nM in the assay with CMV (setting [3]); 52 nM in the assay with CMV (setting [4]); 14 nM in assay [1]; 95 nM in assay [2] (setting [5]).
`Cn1nc(C(=O)NCc2ccc(C#N)cc2)c2c1C(=O)N(CC1(S(=O)(=O)C(C)(C)[C@H](O)CO)CC1)CC2` [Example 193, (R)-N-(4-Cyanobenzyl)-6-((1-((3,4-dihydroxy-2-methylbutan-2-yl)sulfonyl)cyclopropyl)methyl)-1-methyl-7-oxo-4,5,6,7-tetrahydro-1H-pyrazolo[3,4-c]pyridine-3-carboxamide]: the EC50 came to 34 nM in the assay with VZV Ellen strain, 26 nM with CMV (setting [4]), 8 nM in assay [1] and 58 nM in assay [2] (setting [5]). The IC50 on CMV-polymerase was found to be 1 nM.
As for `N#Cc1ccc(CNC(=O)c2nn(CCO)c3c2CCN(CC2(S(=O)(=O)C4CC4)CC2)C3=O)cc1` [Example 216, N-(4-cyanobenzyl)-6-((1-(cyclopropylsulfonyl)cyclopropyl)methyl)-1-(2-hydroxyethyl)-7-oxo-4,5,6,7-tetrahydro-1H-pyrazolo[3,4-c]pyridine-3-carboxamide], the EC50 in the assay on VZV Ellen strain was 109 nM; with CMV (setting [3]), 67 nM; in the assay with CMV (setting [4]) it was 67 nM; in assay [1], 28 nM; in assay [2] (read-out: Cellular activity against HSV-1 (EC50)), 112 nM. Further, at CMV-polymerase, the IC50 was found to be 2 nM.
As for `CC(C)(O)Cn1nc(C(=O)NCc2ccc(C#N)cc2)c2c1C(=O)N(CC1(S(=O)(=O)C3(CO)CC3)CC1)CC2` [Example 234, N-(4-Cyanobenzyl)-1-(2-hydroxy-2-methylpropyl)-6-((1-((1-(hydroxymethyl)cyclopropyl)sulfonyl)cyclopropyl)methyl)-7-oxo-4,5,6,7-tetrahydro-1H-pyrazolo[3,4-c]pyridine-3-carboxamide], the EC50 in the assay on VZV Ellen strain amounted to 115 nM; with CMV (setting [3]), 49 nM; with CMV (setting [4]) it was 49 nM; in assay [1] it was 11 nM; in assay [2] (setting [5]), 83 nM. For the same compound, the IC50 on CMV-polymerase amounted to 1 nM.

For the origin of these results see US12338220B2, “Antiviral pyrazolopiridinone compounds” (Novartis AG, priority 2019, dated 2025).
